Tests used:
[1] = Pharmacokinetic study of itraconazole release in mice after intravenous and oral dosing of Compound 3; type: in vivo, mouse; details: for Plasma itraconazole Concentration (ng/mL): mice, individual mice
Experimental: Compound 3 was dissolved in DMSO:PEG400:water (1:4:5, v/v/v) with a final concentration of 0.2 mg/ml or 0.5 mg/ml. The 0.2 mg/ml solution was used for intravenous dosing, and the 0.5 mg/ml solution was for oral dosing.
Three male C57BL/6 mice were intravenously administered with Compound 3 at a dose of 1.0 mg/kg, and blood samples were collected at 2 min, 15 min, 30 min, 1 h, 2 h, 4 h, 6 h, 8 h, and 24 h post administration.
Three male C57BL/6 mice were orally given Compound 3 at a dose of 5.0 mg/kg, and blood samples were collected at 15 min, 30 min, 1 h, 2 h, 4 h, 6 h, 8 h, and 24 h post administration.
(§1) And dose levels were corrected in PK parameter calculation due to the salt factor.
(§2) The blood samples were subject to LC-MS/MS analysis, to monitor the plasma concentrations of both the parent compound and Itraconazole.
(§3) Column: Waters XSELECT HSS T3 2.5 μm 2.1×50 mm
(§4) Mobile phase: 5% Acetonitrile in Water (0.1% Formic acid) (A) and 95% Acetonitrile in Water (0.1% Formic acid) (B)
(§5) Gradient: flow rate at 0.6 mL/min
(§6) AB Sciex Triple Quad 5500 LC/MS/MS instrument (Serial NO. BB212611510)
(§7) Quantification: Internal Standard Method

[2] = Compound stability test in human blood; type: in vitro ADME; details: for Remaining Percentages (%) / half-life at 1 μM: 37° C., 1 μM; for half-life at 1 μM: in vitro half-life in human blood
Experimental: (§8) One (1) mM test compound working solution was prepared in DMSO. One (1) mM propantheline working solution was prepared in acetonitrile, wherein propantheline was used as positive control in this assay.
(§9) Ten (10) μL of each test compound solution and the control compound solution were respectively added into a 96 deep well plate, and 40 μL of acetonitrile:water (V/V=1:1) was added to each well to dilute the 1 mM test compound solution to 200 μM working solution.
(§10) Mouse blood (male CD-1 mouse blood, Pharmaron, Lot# PH-ADME-Mouse-20180329) or human blood (Pharmaron, Lot# PH-ADME-Human-20180329) of 398 μL was added to each well of an incubation plate, and then the incubation plate was pre-warmed at 37° C. for 15 minutes. After the pre-incubation, 2 μL of 200 μM working solution prepared above was spiked to the pre-warmed 398 μL blood to reach a final concentration of 1 μM. The final concentration of DMSO was 0.1% and the final concentration of acetonitrile was 0.2%. The assay was performed in duplicate.
(§11) The incubation plate was incubated at 37° C. water bath with shaking at 50 rpm, and aliquots of 50 μL were taken from each well of the incubation plate at 0, 10, 30, 60, 90, 120 and 180 minutes.
(§12) The reaction was stopped by the addition of 50 μL of pure water. The plate was vortexed for 30 seconds at 1,000 rpm and then added with 300 μL of cold acetonitrile containing internal standards (100 nM aprozolam, 200 nM caffeine, 100 nM tolbutamide).
(§13) All samples were vortexed for 10 minutes, followed by centrifugation at 14,000 rpm for 15 minutes to precipitate proteins. 100 μL of each supernatant was transferred to a new plate, and diluted with ultrapure water according to the LC-MS signal response and peak shape.
(§14) Samples were analyzed by LC-MS/MS.
(§15) • LC system: ACQUITY UPLC® I-Class • MS analysis: Waters XEVO® TQ-D with an ESI interface • Column temperature: 40° C. • Injection volume: 3 μL • Column: Waters XSelect HSS T3 C18, 2.5 μm, 2.1×50 mm column • Mobile phase: 0.1% formic acid in water (A) and 0.1% formic acid in acetonitrile (B)
(§16) • Ion source: Turbo spray • Ionization model: ESI • Scan type: MRM • Cone gas: 150 L/h • Desolvation gas: 1000 L/h • Desolvation temperature: 500° C. • Capillary voltage: 3.00 KV
(§17) All calculations were carried out using Microsoft Excel. Peak area ratios were determined from extracted ion chromatograms, and percent compounds remaining at each time point were calculated by the following equation:
(§18) Remaining Percentaget min(%)=Peak Area Ratiot min/Peak Area Ratio0 min×100, where Peak Area Ratiot min referred to peak area ratio of control and test compounds at t min; and Peak Area Ratio0 min referred to peak area ratio of control and test compounds at zero time point. The in vitro half-life (in vitro t1/2) was determined from the slope value: In vitro T1/2=−(0.693/k).

[3] = Compound stability test in mouse blood; type: in vitro ADME; details: for half-life at 1 μM: male, CD-1, in vitro half-life in mouse blood; for half-life at 1 μM / Remaining Percentages (%): 37° C., 1 μM
Experimental: as §8, §9, §10, §11, §12, §13, §14, §15, §16, §17, §18

[4] = Pharmacokinetic study of itraconazole release in mice after intravenous and oral dosing of Compound 6; type: in vivo, mouse; details: for Plasma itraconazole Concentration (ng/mL): mice, individual mice
Experimental: Compound 6 was dissolved in DMSO:PEG400:water (1:4:5, v/v/v) with a final concentration of 0.2 mg/ml or 0.5 mg/ml. The 0.2 mg/ml solution was used for intravenous dosing, and the 0.5 mg/ml solution was for oral dosing.
Three male C57BL/6 mice were intravenously administered with Compound 6 at a dose of 1.0 mg/kg, and blood samples were collected at 2 min, 15 min, 30 min, 1 h, 2 h, 4 h, 6 h, 8 h, and 24 h post administration.
Three male C57BL/6 mice were orally given Compound 6 at a dose of 5.0 mg/kg, and blood samples were collected at 15 min, 30 min, 1 h, 2 h, 4 h, 6 h, 8 h, and 24 h post administration.
as §1, §2, §3, §4, §5, §6, §7

[5] = relatively low dose; cited from earlier work

SMILES	Remaining Percentages (%) ([2]; human blood, 0 min)	Remaining Percentages (%) ([2]; human blood, 10 min)	Remaining Percentages (%) ([2]; human blood, 30 min)	Remaining Percentages (%) ([2]; human blood, 60 min)	Remaining Percentages (%) ([2]; human blood, 90 min)	Remaining Percentages (%) ([2]; human blood, 120 min)	Remaining Percentages (%) ([2]; human blood, 180 min)	half-life at 1 μM [2] [min]	half-life at 1 μM [3] [min]	Remaining Percentages (%) ([3]; mouse blood, 0 min)	Remaining Percentages (%) ([3]; mouse blood, 10 min)	Remaining Percentages (%) ([3]; mouse blood, 30 min)	Remaining Percentages (%) ([3]; mouse blood, 60 min)	Remaining Percentages (%) ([3]; mouse blood, 90 min)	Remaining Percentages (%) ([3]; mouse blood, 120 min)	Remaining Percentages (%) ([3]; mouse blood, 180 min)	also measured
CCC(C)n1ncn(-c2ccc(N3CCN(c4ccc(OCC5COC(Cn6c[n+](COC(C)=O)cn6)(c6ccc(Cl)cc6Cl)O5)cc4)CC3)cc2)c1=O.[Cl-] (stereo not drawn) [Compound 3]	100	94.0	82.3	67.5	61.5	55.3%	34.3%	123	59	100	88.1	67.1	46.3	30.3	24.4	12.0	abnormal clinical symptoms during the test ([1]; male C57BL/6 mice, 1.0 mg/kg intravenous or 5.0 mg/kg oral Compound 3): No mice were observed with abnormal clinical symptoms; Plasma itraconazole Concentration (ng/mL) ([1]; IV Dose 0.860 mg/kg Compound 3, 8 h, 0.86 mg/kg): BLOQ; Plasma itraconazole Concentration (ng/mL) ([1]; IV Dose 0.860 mg/kg Compound 3, 24 h): BLOQ; Plasma itraconazole Concentration (ng/mL) ([1]; PO Dose 4.30 mg/kg Compound 3, 24 h): BLOQ; stability in blood, in words ([2]; human blood): more stable among exemplary compounds; stability in blood, in words ([3]; mouse blood): more stable among exemplary compounds
CCC(C)n1ncn(-c2ccc(N3CCN(c4ccc(OCC5COC(Cn6cncn6)(c6ccc(Cl)cc6Cl)O5)cc4)CC3)cc2)c1=O (stereo not drawn) [Itraconazole]	–	–	–	–	–	–	–	–	–	–	–	–	–	–	–	–	adverse effect, in words [5]: no observed adverse effect

Further lines, with some results ahead:

Remaining Percentages (%) ([2]; human blood, 0 min)	Remaining Percentages (%) ([2]; human blood, 10 min)	Remaining Percentages (%) ([2]; human blood, 30 min)	Remaining Percentages (%) ([2]; human blood, 60 min)	Remaining Percentages (%) ([2]; human blood, 90 min)	Remaining Percentages (%) ([2]; human blood, 120 min)	Remaining Percentages (%) ([2]; human blood, 180 min)	half-life at 1 μM [2] [min]	half-life at 1 μM [3] [min]	Remaining Percentages (%) ([3]; mouse blood, 0 min)	Remaining Percentages (%) ([3]; mouse blood, 10 min)	Remaining Percentages (%) ([3]; mouse blood, 30 min)	Remaining Percentages (%) ([3]; mouse blood, 60 min)	Remaining Percentages (%) ([3]; mouse blood, 90 min)	Remaining Percentages (%) ([3]; mouse blood, 120 min)	Remaining Percentages (%) ([3]; mouse blood, 180 min)	SMILES	also measured
100	94.2	77.3	55.3	41.1	34.0%	15.2%	67.4	10	100	51.5	12.6	3.10	0.595	0.186	0.232	CCOC(=O)OC[n+]1cnn(CC2(c3ccc(Cl)cc3Cl)OCC(COc3ccc(N4CCN(c5ccc(-n6cnn(C(C)CC)c6=O)cc5)CC4)cc3)O2)c1.[Cl-] (stereo not drawn) [Compound 6]	abnormal clinical symptoms during the test ([4]; male C57BL/6 mice, 1.0 mg/kg intravenous or 5.0 mg/kg oral Compound 6): No mice were observed with abnormal clinical symptoms; Plasma itraconazole Concentration (ng/mL) ([4]; IV Dose 0.822 mg/kg Compound 6, 8 h, 0.822 mg/kg): BLOQ; Plasma itraconazole Concentration (ng/mL) ([4]; IV Dose 0.822 mg/kg Compound 6, 24 h): BLOQ; Plasma itraconazole Concentration (ng/mL) ([4]; PO Dose 4.11 mg/kg Compound 6, 24 h): BLOQ
100	31.6	1.40	0.785	0.616	BLOD	BLOD	6.03	21.9	100	71.2	40.2	14.8	7.0	3.99	1.03	CCC(C)n1ncn(-c2ccc(N3CCN(c4ccc(OCC5COC(Cn6c[n+](COC(=O)OC(C)C)cn6)(c6ccc(Cl)cc6Cl)O5)cc4)CC3)cc2)c1=O.[Cl-] (stereo not drawn) [Compound 8]	–
100	85.5	55.8	29.2	15.2	6.83%	1.84%	32.8	38.8	100	88.8	62.4	34.8	20.4	12.3	4.44	CC(C)[N+](C)(CCOC(=O)C1c2ccccc2Oc2ccccc21)C(C)C [Propantheline, propantheline, reference compound]	–

From US20210346506A1, “PRODRUG OF ITRACONAZOLE AND USES THEREOF” (priority 2020, published 2021)
